Assay results from patent US12661353B2, “SPT5 inhibitors and uses thereof” (Yeda Research and Development Co. Ltd., priority 2020, dated 2026).

Legend:
[1] = tested on: A20 mRNA; assay: Splicing of A20: mature/immature transcripts, RT-qPCR; assay type: cell-based, human; conditions: following TNFα induction, 50 μM
Procedure: Bars represent the mean of at least 3±SEM independent experiments. The asterisks denote statistical significance differences relative to DMSO+TNFα control according to Student's t tests (typically one tailed, paired): *p<0.05; **p<0.01; ***p<0.005; ****p<0.001. […] Shown are mRNA levels of A20 (normalized to GAPDH) in Hela cells treated with SPI-21 and TNFα and incubated with actinomycin D for the indicated time points, as determined by real-time qPCR. The data points present the mean of 3±SEM independent experiments. […] Shown are levels of mature and immature transcripts in cells incubated for 1 hour with DMSO (vehicle control) or 50 μM of SPI-21 or SPI-18 followed by treatment with TNFα for an additional one hour, as determined by real-time qPCR using primers spanning exons 3 and 4 (mature, black arrows shown in the scheme of G, SEQ ID NOs: 47 and 48) or intron 1 and exon 2 (immature, red arrows shown in the scheme of G, SEQ ID NOs: 49 and 50). […] DMSO (vehicle control), SPI-21 or SPI-18 treated cells were induced by TNFα for the indicated times and the levels of IκBα and β-Tubulin proteins were analyzed by western blot as indicated. […] The occupancy of the A20 gene was analyzed by qPCR using primers from the first (A, SEQ ID NOs: 55 and 56), third (B, SEQ ID NOs: 57 and 58) and last (C, SEQ ID NOs: 59 and 60) exon-intron junctions. […]

[2] = tested on: mutant (Q111) Htt; assay: Htt mRNA levels in Q111 striatal cells, qPCR; assay type: cell-based, mouse; conditions: Q111 striatal cells, 48 hours; note: key: + represent a statistically significant effect
Procedure: (§1) Cell culture—HEK293T, HeLa, MCF7, Jurkat and mouse embryonic fibroblasts (MEFs) cells were grown and maintained in Dulbecco's modified Eagle's medium supplemented with 10% fetal calf serum (Gibco) and 1% penicillin-streptomycin. To avoid NF-κB activity, HeLa cells were kept from reaching confluence and re-plated no more than 10 times following initial thawing. To induce NF-κB activity, cells were treated with […] recombinant human TNF-α (Peprotech) for the indicated times. STHdh Q111 and STHdh Q7 striatal cell lines (Coriell Institute for Medical Research) were grown in Dulbecco's modified Eagle's medium supplemented with 10% fetal calf serum (Gibco), 1% penicillin-streptomycin and 0.4 mg/ml G418 at 33° C. The cells were re-plated no more than 5-6 times, as recommended.
Huntington's disease (HD) is an inherited genetic disorder caused by expansion trinucleotide CAG repeats (36 and higher) encoding glutamine (Q) in the huntingtin (Htt) gene. Expression of the mutant gene in neurons of the striatum and the frontal cortex leads to degeneration of neuronal cells that control body movements, emotions and intellect. […] To examine the potential effect of SPIs in this context, striatal cell lines established from wild type (Q7) or from mutant (Q111) Htt knock-in mice were used. In these cell lines the coding region of the first exon of the mouse Htt gene was replaced with the same region of human wild type (Q7) or mutant (Q111) Htt, as schematically shown in FIG. 6A. The two cell lines were treated for 48 hours with the identified SPIs and following the levels of Htt mRNA were determined.
The compounds were tested as described in Example 4 hereinabove. In brief, Q111 (or Q7, where indicated) expressing Striatal cells were treated with the tested compound at the indicated concentrations for 48 hours. Then, RNA was extracted and levels of Htt mRNA were determined by qRT-PCR and normalized to β-actin. The data was analysed using GraphPad Prism software.

[3] = tested on: pro-inflammatory genes A20, CCL20, IL6, IL8, CXCL2, JUNB and IEX1; assay: mRNA levels of pro-inflammatory genes under TNFα-induced conditions, HeLa, RT-qPCR; assay type: cell-based, human; conditions: HeLa cells, SPI 1 hour then TNFα 1 hour
Procedure: as §1
RNA analysis—Total RNA was extracted using Tri-reagent (Bio-Lab Chemicals) and Direct-Zol™ RNA MiniPrep kit (Zymo Research). Following, cDNA was synthesized from […] of total RNA using a High-Capacity cDNA Reverse Transcription Kit (ABI, Thermo Fisher Scientific). cDNA samples were analyzed by quantitative PCR (qPCR) in a ViiA 7 Real-Time PCR System using Fast qPCRBIO SYBR Green Mix (PCR Biosystems).
In the next step, the effect of the identified SPIs on expression of the selected genes following NF-κB activation was analyzed. Specifically, Hela cells were pre-incubated with DMSO or SPI (50 μM or less) for 1 hour followed by treatment with TNFα for an additional 1 hour.

[4] = tested on: HeLa cells; assay: Cells viability assay (CellTiter-Glo), HeLa; assay type: cell-based, human; conditions: increasing concentrations, 48 h
Procedure: Cells viability assay—_HeLa cells were plated in an opaque-walled 96 well plate (50,000 cells per well) and treated with increasing concentrations of the tested SPI compounds (e.g., SPI-21 or SPI-18) for 48 hours. After equilibrating the plate and its contents at room temperature for 30 minutes, […] (1:1) of CellTiter-Glo® Reagent (G7571, Promega) was added to each well and shook for 2 minutes to induce cell lysis. Following 10 minutes incubation at room temperature, the luminescent signal was detected using the Cytation 5 instrument.
Spt5 was reported to be essential for cell growth and survival in mammalian cells (Komori et al., 2009).

Row | Structure (SMILES) | mature/immature A20 mRNA ratio [1] | Down-regulating transcription of Mutant Htt (i.e. inhibiting transcription elongation of mutant Htt gene induced by Spt5) [2] | Down-regulating transcription of pro-inflammatory genes under TNFα induced conditions (i.e. inhibiting transcription elongation of pro-inflammatory genes induced by Spt5) [3] | cellular viability [4]
1 | COc1ccc(C=CC(=O)c2cc(O)ccc2O)cc1 [SPI-21] | clear decrease in mature/immature ratio | + | +++ (+++ represent >80% inhibition) | dramatically diminish cellular viability in a dose-dependent manner
2 | Nc1ccccc1SC(CC(=O)c1cccs1)c1cccs1 (centres unmarked) [SPI-18] | clear decrease in mature/immature ratio | + | + (+ >50%) | dramatically diminish cellular viability in a dose-dependent manner
